Experimental data as given in patent US20240384344A1, “METHOD FOR LABELING CELLS” (RIKEN, priority 2022, published 2024).

Tests used:
[1] = test system: undifferentiated mouse ES cells (R1 line); assay: Flow cytometry of labeling efficiency (PE-positive cells), USB method vs Ab method; type: cell-based; conditions: TotalSeq PE streptavidin detection
Experimental: Single cells containing 0.5-2×10^6 […] CELLs prepared in “3. […] After incubation on ice, 3 mL ice-cold PBS containing 3% FBS was added to the reaction, and the cells were centrifuged at 4° C., 300 g for 5 minutes. The cells were further washed twice with Cell Staining Buffer (BioLegend, Inc., 420201), and then kept on ice until barcoded oligo DNA binding in the next step. Single cells containing 0.5-2×10^6 […] CELLs prepared in “3. […] An ice-cold primary antibody solution (0.05 μg/mL biotinylated CDC324 [E-cadherin] rat monoclonal antibody [Thermo Fisher ScientificTM, 13-3249-82]) was mixed with the cell suspension solution, and the cell was incubated on ice for 30 minutes. Next, the cells were washed three times with ice-cold Cell Staining Buffer, and then kept on ice until binding of barcoded DNA. […] The cell suspension solution was filtered through 40 μm cell strainer, the same number of cells from each sample was gathered in a single tube and used for cell trapping and cDNA synthesis using a BD RhapsodyTM apparatus. First, by the same method as in the above 1-3, SINGLE CELL suspension solutions of undifferentiated ES cells and differentiated ES cells were prepared. […] The stained cells were analyzed by flow cytometry using EC800 Cell Analyzer (Sony Corporation), Cyto FLEX flow cytometer (Beckman Coulter, Inc.), or […] flow cytometer (BD Biosciences). […]

[2] = test system: differentiated ES cells (R1, embryoid body formation); assay: as above; type: cell-based, mouse; conditions: TotalSeq PE streptavidin detection
Experimental: After removing the feeder cells, 1×10^4 ES cells were seeded in 100 μL differentiation medium (GMEM supplemented with 15% FBS, 0.11 mg/mL sodium pyruvate, 0.1 mM 2-mercaptoethanol, 1×non-essential amino acid, and 1×GlutaMAX supplement) in a U-bottom 96-well low cell attachment plate (Nunclon Sphera 96-Well U-Shaped-Bottom Microplate; Thermo Fisher ScientificTM, 174925), and cultured for 24 hours. Spheroids made in the plate were transferred to a 90 mm, low cell attachment culture dish (Nunclon Sphera 90 mm dish, 174945), and cultured for further 4 days to form embryoid bodies (EBs). The EBs were washed three times with PBS, dissociated into […] CELLs (group of single cells) using 0.25% trypsin, the cells were seeded on a gelatin-treated culture dish, and cultured for 7 days to induce further differentiation. Single cells containing 0.5-2×10^6 […] CELLs prepared in “3. […] After incubation on ice, 3 mL ice-cold PBS containing 3% FBS was added to the reaction, and the cells were centrifuged at 4° C., 300 g for 5 minutes. The cells were further washed twice with Cell Staining Buffer (BioLegend, Inc., 420201), and then kept on ice until barcoded oligo DNA binding in the next step. […] The stained cells were analyzed by flow cytometry using EC800 Cell Analyzer (Sony Corporation), Cyto FLEX flow cytometer (Beckman Coulter, Inc.), or […] flow cytometer (BD Biosciences). […]

[3] = test system: undifferentiated ES cells; assay: Cell viability test (colony formation); type: cell-based, mouse
Experimental: Undifferentiated ES cells were treated with 100 μg/mL S-NHS-biotin (10-fold the concentration used for multiplex scRNA-seq) and TotalSeq® PE streptavidin, and 3×10^3 cells were seeded on a 3.5 cm, gelatin-treated culture dish. Concurrently, the same number of untreated cells were seeded. After 5-day culture, the cells were stained with hematoxylin, and the colony formation ratios of untreated control and treated sample were examined.
A series of experimental operations by the USB method has a possibility to compromise cell states and growth. To examine this possibility, ES cells were treated by the USB method, and seeded on a culture dish to measure colony formation ability (FIG. 7). As a result, even though cells were treated with S-NHS-biotin at a concentration 10-fold the concentration used in the USB method (0.1 mg/mL), the difference of colony formation rates between the control group without labeling and the USB group were not observed. Consequently, the USB method was concluded to not change the cell viability.

[4] = Storage stability of S-NHS-biotin stock solution; type: physicochemical; conditions: stock solution at −80° C.
Experimental: A S-NHS-biotin stock solution was prepared by dissolving EZ-Link sulfo-NHS-biotin (Thermo Fisher Scientific™, 21217) in PBS at a concentration of 10 mg/mL, and dispensed and stored at […] until use.

[5] = test system: mouse growth plate chondrocytes; assay: Flow cytometry of labeled growth plate chondrocytes; type: cell-based; conditions: mouse growth plate chondrocytes (FIG. 11)
Experimental: (§1) Specifically, healthy F344 rat lungs were cut into 0.5 mm^2 with razor blade, digested in a Liberase solution [RPMI-1640 (Natalai Tesque)] added with 10% FBS, 10 mM HEPES pH 7.2-7.4, 0.25 mg/ml Liberase™ (F. Hoffmann-La Roche Ltd.), and 2000 U/mL DNase I (Merck KGaA) for 60 minutes at 37° C. to prepare a SINGLE CELL suspension solution. Dead cells were removed by Percoll. Alternatively, growth plate cartilage from proximal tibia was collected from 3-week-old mice and cut finely into 1 to 2 mm pieces. Next, the cut pieces were dispersed into SINGLE CELLs (group of single cells) with Liberse™ (F. Hoffmann-La Roche Ltd.) solution for 120 to 210 minutes while continuously agitating.
(§2) Reagents for cell staining were biotinylated CDC324 (E-cadherin) rat monoclonal antibody (Thermo Fisher Scientific™, 13-3249-82), TotalSeq® PE streptavidin (BioLegend, Inc., 405251), PerCP-Cy5.5 anti-rat CD45 (Bio-Rad Laboratories, Inc., clone OX-1), PE anti-rat CD31 (Bio-Rad Laboratories, Inc., Clone TLD-3A12), streptavidin-APC (BioLegend, Inc., 405207), APC rat anti-mouse CD45 (BD Biosciences, 559864), and PE anti-mouse H-2 antibody (BioLegend, Inc., 125505).
(§3) The stained cells were analyzed by flow cytometry using EC800 Cell Analyzer (Sony Corporation), Cyto FLEX flow cytometer (Beckman Coulter, Inc.), or FACS Arria II flow cytometer (BD Biosciences).

[6] = test system: rat lung cells (CD31 positive, CD45 positive, double negative); assay: Flow cytometry of USB labeling of fractionated lung cells (APC-labeled streptavidin); type: cell-based; conditions: CD45 positive and double negative fractions (FIG. 12)
Experimental: as §1, §2, §3

[7] = biological target: mouse E-cadherin (CDH1) (mouse) (UniProt P09803); assay: flow cytometry, undifferentiated mouse R1 ES cells, biotinylated anti-CDH1 antibody then PE-conjugated TotalSeq streptavidin
[8] = biological target: mouse E-cadherin (CDH1) (mouse) (UniProt P09803); assay: flow cytometry, differentiated R1 ES cells (only a part of them expresses CDH1), biotinylated anti-CDH1 antibody then PE-conjugated TotalSeq streptavidin

Chain of UniProt P09803 (P09803 157-884): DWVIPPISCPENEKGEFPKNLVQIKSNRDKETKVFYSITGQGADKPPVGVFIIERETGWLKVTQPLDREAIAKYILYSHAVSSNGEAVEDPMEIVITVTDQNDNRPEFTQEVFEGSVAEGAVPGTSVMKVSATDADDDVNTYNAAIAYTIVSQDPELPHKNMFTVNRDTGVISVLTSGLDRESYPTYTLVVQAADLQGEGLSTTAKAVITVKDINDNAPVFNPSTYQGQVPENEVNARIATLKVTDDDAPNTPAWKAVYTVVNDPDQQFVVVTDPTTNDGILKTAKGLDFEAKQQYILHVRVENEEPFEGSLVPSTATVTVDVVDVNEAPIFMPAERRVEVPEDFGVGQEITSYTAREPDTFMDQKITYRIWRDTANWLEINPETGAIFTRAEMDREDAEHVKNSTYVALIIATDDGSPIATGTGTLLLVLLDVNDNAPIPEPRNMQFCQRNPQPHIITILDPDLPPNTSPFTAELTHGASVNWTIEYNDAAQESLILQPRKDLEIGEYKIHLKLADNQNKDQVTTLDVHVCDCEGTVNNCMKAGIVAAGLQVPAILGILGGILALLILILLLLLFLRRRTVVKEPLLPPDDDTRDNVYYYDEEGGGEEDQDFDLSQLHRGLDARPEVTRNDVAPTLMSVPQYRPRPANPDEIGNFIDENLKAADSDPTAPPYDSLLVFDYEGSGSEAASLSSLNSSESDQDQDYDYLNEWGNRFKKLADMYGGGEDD

percent PE-positive cells [7]	percent PE-positive cells [8]	Substance	percentage of PE-positive cells [1]	percentage of PE-positive cells [2]	difference of colony formation rates between the control group without labeling and the USB group ([3]; S-NHS-biotin 0.1 mg/mL (10-fold the concentration used in the USB method), 5-day culture)	effect on viability of undifferentiated ES cells ([3]; S-NHS-biotin treated vs control untreated cells (FIG. 7))	time stock solution is stable [4]	labeling/staining of chondrocytes [5]	labeling of fractionated lung cells [6]
		sulfo-N-hydroxysuccinimide-biotin [S-NHS-biotin]	99.6%	96.4%	not observed	does not affect the viability	more than 1 year	efficiently labeled	All fractionated cells were found to have been labeled
87.8%	9.9%	biotinylated CDC324 [E-cadherin] rat monoclonal antibody [Thermo Fisher Scientific, 13-3249-82]							
